Earlier results on 1 molecule are cited in US20190054067A1, “COMPOSITIONS AND METHODS FOR TREATING COMPULSIVE-LIKE BEHAVIOR IN A SUBJECT” (UNIVERSITY OF THE SCIENCES, priority 2016, published 2019).

Data set [1] concerns compulsive-like BIG male mice. Conditions: compulsive-like BIG mice (Greene-Schloesser et al., 2011); cited from earlier work.
Data set [2] relates to compulsive-like BIG male mice. The conditions noted are these: compulsive-like BIG mice (Greene-Schloesser et al., 2011); cited from earlier work. The source holds these as a separate data set.
The test system of another data set is compulsive-like BIG mice. The conditions noted are these: cited from earlier work.

For `CNCCC(Oc1ccc(C(F)(F)F)cc1)c1ccccc1` (stereo not drawn) [fluoxetine], in data set [1], the NB behavior result was “significantly attenuated”. Moreover, the MB behavior entry in data set [2] is given as “significantly attenuated”. Further, the overall wheel-running locomotion result in the data set on compulsive-like BIG mice was “failed to reduce”.
